According to ChEMBL document CHEMBL6134895, “Strategic Design and Optimization of Umifenovir Analogues: Balancing Antiviral Efficacy and hERG Toxicity against SARS-CoV-2” (J Med Chem, 2025):
Active and inactive are the calls of the source. No cut-off for these calls is given here.

Experiments:
[1] = test system: Vero C1008; test: (§1) Cytotoxicity against African green monkey Vero E6 cells assessed as cell viability at 5 uM incubated for 48 hrs by MTT assay; type: toxicity, cell-based; settings: chlorocebus sabaeus, vero c1008, 48 h, 5 µM
[2] = test system: SARS-CoV-2; test: Antiviral activity against SARS CoV-2 Wuhan infected in African green monkey Vero E6 cells assessed as virus inactivation at 5 uM pretreated for 15 mins followed by compound removal and induction of viral infection for 1 hr and subsequent removal of inoculum and further addition of media containing compound measured after 48 hrs by RT-qPCR analysis relative to control; type: functional, Severe acute respiratory syndrome coronavirus 2; settings: time 48.25 hrs
[3] = test system: SARS-CoV-2; test: Antiviral activity against SARS CoV-2 Wuhan infected in African green monkey Vero E6 cells assessed as inhibition of viral replication pretreated for 15 mins followed by compound removal and induction of viral infection for 1 hr and subsequent removal of inoculum and further addition of media containing compound measured after 24 hrs by cell-based ELISA; type: functional, organism-based; settings: for IC50: Severe acute respiratory syndrome coronavirus 2, Wuhan, Vero C1008; for inhibition: Severe acute respiratory syndrome coronavirus 2, time 24.25 hrs
[4] = Microsomal stability in human liver microsomes assessed as half life at 100 uM preincubated for 15 mins followed by NADPH addition measured up to 60 mins by LC-MS/MS analysis; type: ADME, Microsome; settings: time < 75 min
[5] = Stability in mouse plasma assessed as compound remaining at 2 uM measured after 2 hrs by LC-MS/MS analysis; type: ADME, cell-free; settings: read-out: Stability
[6] = Lipophilicity, LogD of compound in sodium phosphate buffer/n-octanol incubated for 3 hrs by LC-UV analysis; type: physicochemical
[7] = Microsomal stability in mouse liver microsomes assessed as intrinsic clearance measured per mg protein at 100 uM preincubated for 15 mins followed by NADPH addition measured up to 60 mins by LC-MS/MS analysis; type: ADME, Microsome; settings: time < 75 min, read-out: CLH
[8] = Stability in mouse plasma assessed as half life at 2 uM measured up to 120 mins by LC-MS/MS analysis; type: ADME, cell-free
[9] = Stability in human plasma assessed as half life at 2 uM measured up to 120 mins by LC-MS/MS analysis; type: ADME, cell-free
[10] = molecular target: Voltage-gated inwardly rectifying potassium channel KCNH2 (Homo sapiens, UniProt Q12809); test: Inhibition of hERG extracted from membrane (unknown origin) incubated for 4 hrs by fluorescence polarization assay; type: toxicity, cell membranes
[11] = Microsomal stability in human liver microsomes assessed as intrinsic clearance measured per mg protein at 100 uM preincubated for 15 mins followed by NADPH addition measured up to 60 mins by LC-MS/MS analysis; type: ADME, Microsome; settings: time < 75 min, read-out: CLH
[12] = Stability in human plasma assessed as compound remaining at 2 uM measured after 2 hrs by LC-MS/MS analysis; type: ADME, cell-free; settings: read-out: Stability
[13] = test system: SARS-CoV-2; test: Antiviral activity against SARS CoV-2 Wuhan infected in African green monkey Vero E6 cells assessed as virus inactivation at 1 uM pretreated for 15 mins followed by compound removal and induction of viral infection for 1 hr and subsequent removal of inoculum and further addition of media containing compound measured after 48 hrs by RT-qPCR analysis relative to control; type: functional, Severe acute respiratory syndrome coronavirus 2
[14] = Microsomal stability in mouse liver microsomes assessed as compound remaining at 100 uM preincubated for 15 mins followed by NADPH addition measured after 60 mins by LC-MS/MS analysis; type: ADME, Microsome; settings: time 75 min, read-out: Stability
[15] = Microsomal stability in human liver microsomes assessed as compound remaining at 100 uM preincubated for 15 mins followed by NADPH addition measured after 60 mins by LC-MS/MS analysis; type: ADME, Microsome; settings: time 75 min, read-out: Stability
[16] = Microsomal stability in mouse liver microsomes assessed as half life at 100 uM preincubated for 15 mins followed by NADPH addition measured up to 60 mins by LC-MS/MS analysis; type: ADME, Microsome; settings: time < 75 min
[17] = Stability in mouse plasma assessed as compound remaining at 2 uM measured after 60 mins by LC-MS/MS analysis; type: ADME, cell-free; settings: read-out: Stability
[18] = Stability in human plasma assessed as compound remaining at 2 uM measured after 60 mins by LC-MS/MS analysis; type: ADME, cell-free; settings: read-out: Stability
[19] = test system: SARS-CoV-2; test: Potency index, ratio of Arbidol IC50 to test compound IC50 for antiviral activity against SARS CoV-2 Wuhan infected in African green monkey Vero E6 cells assessed as inhibition of viral replication pretreated for 15 mins followed by compound removal and induction of viral infection for 1 hr and subsequent removal of inoculum and further addition of media containing compound measured after 24 hrs …; type: functional, Severe acute respiratory syndrome coronavirus 2; settings: time 24.25 hrs
[20] = as §1; type: toxicity, cell-based, Vero C1008; settings: chlorocebus sabaeus, Vero E6 cells, read-out: Activity
[21] = test system: SARS-CoV-2; test: Antiviral activity against SARS CoV-2 Wuhan infected in African green monkey Vero E6 cells assessed as inhibition of viral replication pretreated for 15 mins followed by compound removal and induction of viral infection for 1 hr and subsequent removal of inoculum and further addition of media containing compound measured after 48 hrs by RT-qPCR analysis; type: functional, organism-based; settings: Severe acute respiratory syndrome coronavirus 2, time 48.25 hrs
[22] = Severe acute respiratory syndrome coronavirus 2, time 48.25 hrs

Voltage-gated inwardly rectifying potassium channel KCNH2, sequence (Q12809 whole entry): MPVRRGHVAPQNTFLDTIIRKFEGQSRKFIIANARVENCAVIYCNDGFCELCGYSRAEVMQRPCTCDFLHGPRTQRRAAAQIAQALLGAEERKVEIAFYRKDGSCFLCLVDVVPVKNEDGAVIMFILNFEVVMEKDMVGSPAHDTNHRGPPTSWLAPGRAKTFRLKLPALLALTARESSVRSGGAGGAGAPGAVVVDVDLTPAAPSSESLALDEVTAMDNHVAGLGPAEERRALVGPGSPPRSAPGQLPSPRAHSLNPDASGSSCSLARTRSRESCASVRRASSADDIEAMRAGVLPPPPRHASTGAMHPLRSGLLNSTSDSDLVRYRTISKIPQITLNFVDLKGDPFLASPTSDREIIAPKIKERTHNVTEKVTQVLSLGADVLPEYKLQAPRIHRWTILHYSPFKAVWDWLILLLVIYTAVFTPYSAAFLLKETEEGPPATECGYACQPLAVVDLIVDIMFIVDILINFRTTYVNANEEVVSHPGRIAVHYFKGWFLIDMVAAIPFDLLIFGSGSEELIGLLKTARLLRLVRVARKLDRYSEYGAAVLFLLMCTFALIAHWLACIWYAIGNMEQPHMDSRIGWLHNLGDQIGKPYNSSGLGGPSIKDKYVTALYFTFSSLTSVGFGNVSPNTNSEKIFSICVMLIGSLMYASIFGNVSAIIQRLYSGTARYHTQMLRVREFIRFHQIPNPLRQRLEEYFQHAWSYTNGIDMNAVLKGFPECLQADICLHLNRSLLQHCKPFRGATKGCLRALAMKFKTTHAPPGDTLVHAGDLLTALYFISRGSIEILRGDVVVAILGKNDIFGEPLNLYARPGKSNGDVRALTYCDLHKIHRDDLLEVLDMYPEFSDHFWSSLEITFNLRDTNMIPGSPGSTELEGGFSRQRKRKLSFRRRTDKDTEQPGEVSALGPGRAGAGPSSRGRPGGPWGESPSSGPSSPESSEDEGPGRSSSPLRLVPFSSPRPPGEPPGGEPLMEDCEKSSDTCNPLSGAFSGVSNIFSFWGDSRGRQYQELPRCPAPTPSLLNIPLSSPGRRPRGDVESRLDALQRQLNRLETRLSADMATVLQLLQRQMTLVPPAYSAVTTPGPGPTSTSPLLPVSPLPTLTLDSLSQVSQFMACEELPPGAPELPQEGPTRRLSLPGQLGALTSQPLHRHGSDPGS

| Compound | Activity [1] | Activity [2] | IC50 [3] | half-life at 100 µM [4] | logD at 3 h [6] | microsomal CLint at 100 µM [7] | half-life at 2 µM [8] | half-life at 2 µM [9] | IC50 [10] | microsomal CLint at 100 µM [11] | remaining at 1 h, 100 µM [14] | remaining at 1 h, 100 µM [15] | half-life at 100 µM [16] | Activity [13, 22] | remaining at 1 h, 2 µM [17] | remaining at 1 h, 2 µM [18] | other results |
| --- | --- | --- | --- | --- | --- | --- | --- | --- | --- | --- | --- | --- | --- | --- | --- | --- | --- |
| CCOC(=O)c1c(CSc2ccc(C)cc2C)n(Cc2ccc(C)cc2)c2cc(Br)c(O)c(CN(C)C)c12 | Non-toxic | <99.9% | 1500 nM | 2.71 min | 3.98 | 273 µL/min/mg | > 120 min | > 120 min | 6030 nM | 512 µL/min/mg | 0.314% | 0.31% | 5.08 min |  |  |  | remaining at 2 h, 2 µM [5]: 88.4%; remaining at 2 h, 2 µM [12]: 115%; Activity ([13]; time 48.25 hrs): <99.9% |
| CCOC(=O)c1c(CSc2ccc(F)cc2)n(Cc2cccc3ccccc23)c2cc(Br)c(O)cc12 | Non-toxic | >90% |  |  |  |  |  |  |  |  |  |  |  | Not active; No Significant Effect Observed |  |  | inhibition [3]: inactive |
| CCOC(=O)c1c(CSc2ccc(C)cc2C)n(Cc2cccc3ccccc23)c2cc(Br)c(O)cc12 | Non-toxic | <90% | 240 nM | > 120 min | 3.76 | > 14.4 µL/min/mg | 180 min | > 240 min | > 30000 nM | 20.2 µL/min/mg | 75.5% | 96.7% | > 120 min |  |  |  | remaining at 2 h, 2 µM [5]: 70.3%; remaining at 2 h, 2 µM [12]: 69.1% |
| CCOC(=O)c1c(CSc2c(C)cc(C)cc2C)n(Cc2ccc(C)cc2)c2cc(Br)c(O)cc12 | Non-toxic | >99% | 1500 nM | 17.3 min | 3.03 | 80.2 µL/min/mg | > 120 min | > 120 min | > 30000 nM | 193 µL/min/mg | 1.23% | 8.56% | 7.17 min |  | 111% | 87.8% |  |
| Cc1ccc(Cn2c(CSc3c(C)cc(C)cc3C)c(C(=O)NC3CCN(Cc4ccccc4)CC3)c3cc(O)c(Br)cc32)cc1 | Non-toxic |  | 1500 nM |  |  |  |  |  |  |  |  |  |  |  |  |  | Ratio IC50 [19]: ~13 |
| Cc1ccc(Cn2c(CSc3c(C)cc(C)cc3C)c(C(=O)NC3CCN(C(C)C)CC3)c3cc(O)c(Br)cc32)cc1 | Non-toxic |  | 750 nM | 89.8 min | 3.95 | 9.64 µL/min/mg | > 240 min | > 240 min | 10600 nM | 15.5 µL/min/mg | 80.1% | 59.4% | 120 min |  | 74.8% | 57.6% | Ratio IC50 [19]: ~13 |
| CCOC(=O)c1c(CSc2ccc(C)cc2C)n(C)c2cc(Br)c(O)c(CN(C)C)c12 | Non-toxic | >99% | 1500 nM |  |  |  |  |  | 650 nM |  |  |  |  |  |  |  | Activity ([13]; time 48.25 hrs): >99% |
| CC(C)[N+](C)(CCOC(=O)C1c2ccccc2Oc2ccccc21)C(C)C [PROPANTHELINE] |  |  |  |  |  |  | 52.1 min | 21.3 min |  |  |  |  |  |  | 17.4% | 2.04% |  |
| Cc1ccc(Cn2c(CSc3c(C)cc(C)cc3C)c(C(=O)NC(C)(C)C)c3cc(O)c(Br)cc32)cc1 | Non-toxic |  | 560 nM | 9.7 min | 3.54 | 143 µL/min/mg | > 120 min | > 120 min | > 30000 nM | 242 µL/min/mg | 0.73% | 1.1% | 5.73 min |  | 96.9% | 116% | Ratio IC50 [19]: ~13 |
| CN(C)CCCCNC(=O)c1c(CSc2ccc(F)cc2)n(C)c2cc(Br)c(O)cc12 | Non-toxic |  | 1800 nM | 31.2 min | 1.91 | 25.8 µL/min/mg | 60 min | < 120 min | 9850 nM | 22.2 µL/min/mg | 21% | 28% | 26.9 min |  | 41.6% | 70.6% |  |
| CCOC(=O)c1c(CSc2ccc(F)cc2C)n(C)c2cc(Br)c(O)cc12 |  | 75% |  |  |  |  |  |  |  |  |  |  |  | Not active; No Significant Effect Observed |  |  | viability at 48 h, 5 µM [20]: 70%; inhibition [3]: inactive |
| CCOC(=O)c1c(CSc2ccc(F)cc2C)n(Cc2ccc(C)cc2)c2cc(Br)c(O)cc12 | Non-toxic | >50% | 10000 nM |  |  |  |  |  |  |  |  |  |  | Not active; No Significant Effect Observed |  |  |  |
| CCOC(=O)c1c(CSc2ccc(F)cc2C)n(Cc2ccc(F)cc2)c2cc(Br)c(O)cc12 | Non-toxic | >95% | 12700 nM |  |  |  |  |  |  |  |  |  |  | Not active; No Significant Effect Observed |  |  | inhibition [21]: Not active; No Significant Effect |
